This is an account of results in patent US20240254118A1, “PRMT5 INHIBITORS AND USES THEREOF” (Gilead Sciences, Inc., priority 2022, published 2024).

Assay [1] has as its system SDMA signal (PRMT5 inhibition) in HCT116 MTAP-deleted cells. The assay is described as follows: Symmetric di-methyl arginine image-based high content screen assay (SDMA assay), HCT116 MTAP-deleted. The assay is classed as cell-based. The following applies: SDMA assay; for EC50: Homo sapiens, HCT-116, 72 h, 3 days of treatment, cell line not given, taken as HCT116 MTAP-deleted, read-out: EC50 (SDMA assay); for EC50 selectivity (SDMA assay): taken as HCT116 WT versus MTAP-deleted. The procedure, abridged:
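HCT116 MTAP-deleted cells treated with compound until Day 3, then formalin-fixed, permeabilized and immunostained for SDMA, with DAPI nuclear counterstain. Imaged by high-content microscopy; SDMA read-out is mean Alexa 488 intensity per DAPI-defined cell, reflecting PRMT5 inhibition.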

The subject of assay [2] is HCT116 MTAP-deleted cells. The assay is described as follows: Cell viability assay (CellTiter-Glo, 7 days), HCT116 MTAP-deleted. The following applies: Homo sapiens, HCT-116, 168 h. For orientation: In ATP-based viability assays light output follows the ATP content of the culture.

With `Cn1ncc2c(N)nc3cc(F)c(C(=O)N(Cc4ccc(OC(F)F)cc4F)N4CCCC4=O)cc3c21` [Example 78, 4-amino-N-(4-(difluoromethoxy)-2-fluorobenzyl)-7-fluoro-1-methyl-N-(2-oxopyrrolidin-1-yl)-1H-pyrazolo[4,3-c]quinoline-8-carboxamide], in assay [1], the EC50 is under 1 nM and the “EC50 selectivity (SDMA assay)” value is 19. Also, in assay [2], the CC50 is under 100 nM.
On to `Cn1c(CN(C(=O)c2ccc3nc(N)c4ccccc4c3c2)N2CCCC2=O)nc2ccccc21` [Example 79, 6-Amino-N-[(1-methylbenzimidazol-2-yl)methyl]-N-(2-oxopyrrolidin-1-yl) phenanthridine-2-carboxamide], for which, in assay [1], the concentration for a half-maximal effect (EC50) was 1 to 5 nM and the “EC50 selectivity (SDMA assay)” value is 406. In assay [2], the CC50 lay within 100 to 1000 nM.
The corresponding values for `Cn1ncc2c(N)nc3ccc(C(=O)N(Cc4nc5ccccc5n4C)N4CCCC4=O)cc3c21` [Example 80, 4-Amino-1-methyl-N-[(1-methylbenzimidazol-2-yl)methyl]-N-(2-oxopyrrolidin-1-yl)pyrazolo[4,3-c]quinoline-8-carboxamide] are under 1 nM, 164 and under 100 nM.
The corresponding values for `Cn1c(CN(C(=O)c2ccc3nc(N)c4c(c3c2)COC4)N2CCCC2=O)nc2ccccc21` [Example 81, 4-Amino-N-[(1-methylbenzimidazol-2-yl)methyl]-N-(2-oxopyrrolidin-1-yl)-1,3-dihydrofuro[3,4-c]quinoline-8-carboxamide] are 1 to 5 nM, 101 and under 100 nM.
The corresponding values for `CCn1c(CN(C(=O)c2ccc3nc(N)c4cnn(C)c4c3c2)N2CCCC2=O)nc2ccccc21` [Example 83, 4-Amino-N-[(1-ethylbenzimidazol-2-yl)methyl]-1-methyl-N-(2-oxopyrrolidin-1-yl)pyrazolo[4,3-c]quinoline-8-carboxamide] are 1 to 5 nM, 242 and 100 to 1000 nM.
As for `CN1CCN(N(Cc2ccc(C(F)(F)F)cn2)C(=O)c2cc3c(cc2Cl)nc(N)c2cnn(C)c23)C1=O` [Example 84, 4-Amino-7-chloro-1-methyl-N-(3-methyl-2-oxo-imidazolidin-1-yl)-N-[[5-(trifluoromethyl)-2-pyridyl]methyl]pyrazolo[4,3-c]quinoline-8-carboxamide], in assay [1], the 50% effective concentration (EC50) was in the range of 1 to 5 nM and the “EC50 selectivity (SDMA assay)” value was found to be 26. For the same molecule, the CC50 in assay [2] is under 100 nM.
The corresponding values for `Cn1ncc2c(N)nc3ccc(C(=O)N(Cc4nc5ccc(F)cc5s4)N4CCCC4=O)cc3c21` [Example 85, 4-Amino-N-[(6-fluoro-1,3-benzothiazol-2-yl)methyl]-1-methyl-N-(2-oxopyrrolidin-1-yl)pyrazolo[4,3-c]quinoline-8-carboxamide] are under 1 nM, 48 and under 100 nM.
As to `CC(=O)N(C)N(Cc1nc2ccc(F)cc2s1)C(=O)c1ccc2nc(N)c3cnn(C)c3c2c1` [Example 86, N′-Acetyl-4-amino-N-[(6-fluoro-1,3-benzothiazol-2-yl)methyl]-N′, 1-dimethyl-pyrazolo[4,3-c]quinoline-8-carbohydrazide], in assay [1], the EC50 is under 1 nM and the “EC50 selectivity (SDMA assay)” value is on record as 92. In addition, the CC50 in assay [2] was under 100 nM.
The corresponding values for `CC(=O)N(C)N(Cc1nc2cc(C(F)(F)F)ccc2s1)C(=O)c1cc2c(cc1Cl)nc(N)c1cnn(C)c12` [Example 87, N′-Acetyl-4-amino-7-chloro-N′,1-dimethyl-N-[[5-(trifluoromethyl)-1,3-benzothiazol-2-yl]methyl]pyrazolo[4,3-c]quinoline-8-carbohydrazide] are 1 to 5 nM, 104 and 100 to 1000 nM.
As for `Cn1ncc2c(N)nc3ccc(C(=O)N(Cc4cn5cc(C#N)ccc5n4)N4CCCC4=O)cc3c21` [Example 88, 4-Amino-N-[(6-cyanoimidazo[1,2-a]pyridin-2-yl)methyl]-1-methyl-N-(2-oxopyrrolidin-1-yl)pyrazolo[4,3-c]quinoline-8-carboxamide], in assay [1], the half-maximal effective concentration (EC50) was over 5 nM and the “EC50 selectivity (SDMA assay)” value came to 221. Further, the CC50 in assay [2] lay within 100 to 1000 nM.
On to `Cn1ncc2c(N)nc3ccc(C(=O)N(Cc4nc5cc(C(F)(F)F)ccc5s4)N4CCOC4=O)cc3c21` [Example 89, 4-Amino-1-methyl-N-(2-oxooxazolidin-3-yl)-N-[[5-(trifluoromethyl)-1,3-benzothiazol-2-yl]methyl]pyrazolo[4,3-c]quinoline-8-carboxamide], for which, in assay [1], the EC50 is under 1 nM and the “EC50 selectivity (SDMA assay)” value is given as 204. The molecule further returned a 50% cytotoxic concentration (CC50) in assay [2] of under 100 nM.
The corresponding values for `Cn1ncc2c(N)nc3ccc(C(=O)N(Cc4cn5cc(F)ccc5n4)N4CCCCC4=O)cc3c21` [Example 90, 4-Amino-N-[(6-fluoroimidazo[1,2-a]pyridin-2-yl)methyl]-1-methyl-N-(2-oxo-1-piperidyl)pyrazolo[4,3-c]quinoline-8-carboxamide] are 1 to 5 nM, 53 and under 100 nM.
The corresponding values for `CCC(=O)N(C)N(Cc1cn2cc(F)ccc2n1)C(=O)c1ccc2nc(N)c3cnn(C)c3c2c1` [Example 91, 4-Amino-N-[(6-fluoroimidazo[1,2-a]pyridin-2-yl)methyl]-N′,1-dimethyl-N′-propanoyl-pyrazolo[4,3-c]quinoline-8-carbohydrazide] are 1 to 5 nM, 143 and under 100 nM.
On to `CC(=O)N(C)N(Cc1nc2cc(F)ccc2s1)C(=O)c1ccc2nc(N)c3cnn(C)c3c2c1` [Example 92, N′-Acetyl-4-amino-N-[(5-fluoro-1,3-benzothiazol-2-yl)methyl]-N′,1-dimethyl-pyrazolo[4,3-c]quinoline-8-carbohydrazide], for which, in assay [1], the EC50 is under 1 nM and the “EC50 selectivity (SDMA assay)” value is given as 257. The molecule further came in with a CC50 in assay [2] of under 100 nM.
The corresponding values for `Cn1ncc2c(N)nc3ccc(C(=O)N(Cc4nc5cc(Cl)ccc5s4)N4CCCCC4=O)cc3c21` [Example 93, 4-amino-N-[(5-chloro-1,3-benzothiazol-2-yl)methyl]-1-methyl-N-(2-oxo-1-piperidyl)pyrazolo[4,3-c]quinoline-8-carboxamide] are under 1 nM, 226 and under 100 nM.
For the molecule `Cn1ncc2c(N)nc3ccc(C(=O)N(Cc4cc5ccccn5n4)N4CCCCC4=O)cc3c21` [Example 94, 4-amino-1-methyl-N-(2-oxo-1-piperidyl)-N-(pyrazolo[1,5-a]pyridin-2-ylmethyl)pyrazolo[4,3-c]quinoline-8-carboxamide], in assay [1], the EC50 was under 1 nM and the “EC50 selectivity (SDMA assay)” value is recorded as 133. Also, the CC50 in assay [2] is under 100 nM.
On to `Cn1ncc2c(N)nc3ccc(C(=O)N(Cc4ccc5nsnc5c4)N4CCCC4=O)cc3c21` [Example 95, 4-amino-N-(2,1,3-benzothiadiazol-5-ylmethyl)-1-methyl-N-(2-oxopyrrolidin-1-yl)pyrazolo[4,3-c]quinoline-8-carboxamide], for which, in assay [1], the EC50 was under 1 nM and the “EC50 selectivity (SDMA assay)” value amounted to 205. The molecule further gave a CC50 in assay [2] of under 100 nM.
The corresponding values for `CC(=O)N(C)N(Cc1ccc2nsnc2c1)C(=O)c1ccc2nc(N)c3cnn(C)c3c2c1` [Example 96, N′-acetyl-4-amino-N-(2,1,3-benzothiadiazol-5-ylmethyl)-N′,1-dimethyl-pyrazolo[4,3-c]quinoline-8-carbohydrazide] are 1 to 5 nM, 290 and under 100 nM.
With `CC(=O)N(C)N(Cc1nc2cc(Cl)ccc2o1)C(=O)c1ccc2nc(N)c3cnn(C)c3c2c1` [Example 97, N′-acetyl-4-amino-N-((5-chlorobenzo[d]oxazol-2-yl)methyl)-N′,1-dimethyl-1H-pyrazolo[4,3-c]quinoline-8-carbohydrazide], in assay [1], the EC50 is 1 to 5 nM and the “EC50 selectivity (SDMA assay)” value is recorded as 98. The molecule also had a CC50 in assay [2] of under 100 nM.
On the same counts, the results for `CC(=O)N(C)N(Cc1ccc(C2CC2)cc1)C(=O)c1ccc2nc(N)c3cnn(C)c3c2c1` [Example 98, N′-acetyl-4-amino-N-(4-cyclopropylbenzyl)-N′,1-dimethyl-1H-pyrazolo[4,3-c]quinoline-8-carbohydrazide] are under 1 nM, 120 and under 100 nM.
On the same counts, the results for `CN(C(=O)C1CC(F)(F)C1)N(Cc1ccc(C(F)(F)F)cn1)C(=O)c1ccc2nc(N)c3cnn(C)c3c2c1` [Example 99, 4-amino-N′-(3,3-difluorocyclobutane-1-carbonyl)-N′,1-dimethyl-N-((5-(trifluoromethyl)pyridin-2-yl)methyl)-1H-pyrazolo[4,3-c]quinoline-8-carbohydrazide] are 1 to 5 nM, 269 and under 100 nM.
The corresponding values for `CN(C(=O)c1ncco1)N(Cc1ccc(C(F)(F)F)cn1)C(=O)c1ccc2nc(N)c3cnn(C)c3c2c1` [Example 100, N′-(4-amino-1-methyl-1H-pyrazolo[4,3-c]quinoline-8-carbonyl)-N-methyl-N′-((5-(trifluoromethyl)pyridin-2-yl)methyl)oxazole-2-carbohydrazide] are under 1 nM, 7 and under 100 nM.

Broadly, the EC50 is the concentration needed to bring the measured effect to its halfway point. For orientation: CC50 means the concentration giving 50% cytotoxicity. A lower CC50 goes with greater toxicity to the cells.
